Assay results as given in PMC11161644, “An effective and rapidly degradable disinfectant from disinfection byproducts” (Nature Communications, 2024).
“And” between values parts separate entries of the source, which are not always exact repeats. Equal entries are not always repeated.

How the values were obtained:
P. dumerilii embryos = test: Developmental toxicity (EC50) of OH-DCQ and 2,6-DCQ to P. dumerilii embryos; type: in vivo, Platynereis dumerilii
Protocol: The third aliquot was subjected to the developmental toxicity assay with P. dumerilii embryos. The aliquot was dissolved in 10 mL of seawater and adjusted to pH 8.2. The embryos at 12-h postfertilization were exposed to different levels of OH-DCQ for 12 h. By 24-h postfertilization, normally and abnormally developed embryos were counted using an inverted stereomicroscope. Based on the percentage of normally developed embryos, an exposure−response curve was generated. The median effective concentration (EC50) was determined using SigmaPlot 12 software. The developmental toxicity of 2,6-DCQ was also evaluated for comparison. The toxicity bioassay was conducted in duplicate.

[1] = UPLC/ESI-tqMS time profile of 2,6-DCQ and its degradation products in simulated seawater (pH 8.2, darkness); OH-DCQ formation; details: for Concentration: 2,6-DCQ degradation / OH-DCQ formation; for Peak area: 2,6-DCQ degradation
Protocol: A Waters UPLC system coupled with ESI-tqMS was used to characterize the degradation products of 2,6-DCQ. The UPLC separation was performed using an HSS T3 column (100 × 2.1 mm, 1.8 μm particle size, Waters) with a column temperature of 35 °C. A gradient eluent of methanol–water was applied at a flow rate of 0.4 mL min^−1. The gradient program was set as follows: methanol/water (v/v) ratio changed linearly from 5/95 to 90/10 in the first 8 min and then returned to 5/95 during 8.0‒8.1 min, which was held for 2.9 min for re-equilibration. The ESI-tqMS was set as follows: ESI negative mode, capillary voltage 2.8 kV, cone voltage 10–50 V (depending on analytes), cone gas flow 50 L h^−1, source temperature 120 °C, desolvation temperature 400 °C, desolvation gas flow 800 L h^−1, collision energy 15–50 eV (depending on analytes), collision gas (argon) flow 0.25 mL min^−1, and mass resolution 15 (1-unit resolution).
The degradation of 2,6-DCQ in seawater was simulated by adding 10 mg L^−1 2,6-DCQ to 50 mL ultrapure water, which was adjusted to pH 8.2 with 5 mM sodium carbonate (to simulate the alkalinity in seawater and also to be compatible with the subsequent UPLC/ESI-tqMS analysis). The sample was kept in darkness for 0–24 h, during which the pH of the sample was maintained at 8.1 ± 0.1. At a designated reaction time, 7.5 μL of the sample was injected into the UPLC system. For a nonhalogenated degradation product, the selected ion recording (SIR) mode with a dwell time of 0.05 s was adopted to obtain the retention time. For halogenated degradation products, the multiple reaction monitoring mode with a dwell time of 0.05 s was used to obtain the retention time and the isotopic abundance ratio. To investigate the time-dependent profile of 2,6-DCQ and its degradation products, the peak area of each compound was determined using the SIR mode in the UPLC/ESI-tqMS analysis.
The second aliquot was subjected to analysis of total organic halogen to quantify the collected OH-DCQ. The determination of total organic halogen was based on Standard Method 5320B[52], with modifications of using off-line ion chromatography for halide detection. Briefly, the aliquot was dissolved in 100 mL ultrapure water and acidified to pH 2 with concentrated nitric acid[52] prior to adsorption onto pre-packed activated carbon columns (Mitsubishi). A three-channel adsorption module (TXA03C, Mitsubishi Chemical Analytech) was used for adsorption. An AQF-100 automatic quick furnace (Mitsubishi Chemical Analytech) was used for pyrolysis. During the pyrolysis process, the chlorine atoms in OH-DCQ were converted to chloride. The chloride ion concentration was determined using an ICS-3000 ion chromatography system (Dionex). 2,6-DCQ was used as a standard compound for measuring total organic halogen to determine the recovery of the analysis. The total organic halogen analysis was conducted in duplicate.

rat = details: oral; cited from earlier work

## O=C1C=C(Cl)C(=O)C(Cl)=C1O [OH-DCQ, 3-hydroxyl-2,6-dichloro-1,4-benzoquinone]
P. dumerilii embryos; OH-DCQ concentration 15 mg L-1
  Normal development: 92.9293% and 86.7257%
P. dumerilii embryos; OH-DCQ concentration 25 mg L-1
  Normal development: 83.1776% and 81.579%
P. dumerilii embryos; OH-DCQ concentration 35 mg L-1
  Normal development: 84.1584% and 85.7144%
P. dumerilii embryos; OH-DCQ concentration 40 mg L-1
  Normal development: 83.0189% and 85.5855%
P. dumerilii embryos; OH-DCQ concentration 48 mg L-1
  Normal development: 79.8164% and 77.4194%
P. dumerilii embryos; OH-DCQ concentration 65 mg L-1
  Normal development: 67.0813% and 64.9575%
P. dumerilii embryos; OH-DCQ concentration 85 mg L-1
  Normal development: 48.8761% and 42.0329%
[1]; 10 mg L−1, pH 8.2
  Degradation time at which concentration reached its maximum: 5.5 h
[1]; degradation time 0 h
  Concentration: 0.3882 µg/mL
[1]; degradation time 0.25 h
  Concentration: 1.568 µg/mL
[1]; degradation time 0.5 h
  Concentration: 2.136 µg/mL
[1]; degradation time 0.75 h
  Concentration: 2.523 µg/mL
[1]; degradation time 1 h
  Concentration: 2.564 µg/mL
[1]; degradation time 1.25 h
  Concentration: 2.851 µg/mL
[1]; degradation time 1.5 h
  Concentration: 2.913 µg/mL
[1]; degradation time 1.75 h
  Concentration: 3.134 µg/mL
[1]; degradation time 2 h
  Concentration: 3.157 µg/mL
[1]; degradation time 2.25 h
  Concentration: 3.402 µg/mL
[1]; degradation time 2.5 h
  Concentration: 3.558 µg/mL
[1]; degradation time 2.75 h
  Concentration: 3.742 µg/mL
[1]; degradation time 3 h
  Concentration: 3.837 µg/mL
[1]; degradation time 3.25 h
  Concentration: 4.027 µg/mL
[1]; degradation time 3.5 h
  Concentration: 4.055 µg/mL
[1]; degradation time 3.75 h
  Concentration: 4.03 µg/mL
[1]; degradation time 4 h
  Concentration: 4.244 µg/mL
[1]; degradation time 4.5 h
  Concentration: 4.217 µg/mL
[1]; degradation time 5 h
  Concentration: 4.0996 µg/mL
[1]; degradation time 5.5 h
  Concentration: 4.364 µg/mL
[1]; degradation time 6 h
  Concentration: 4.268 µg/mL
[1]; degradation time 8 h
  Concentration: 4.1924 µg/mL
[1]; degradation time 10 h
  Concentration: 3.83 µg/mL
[1]; degradation time 12 h
  Concentration: 3.886 µg/mL
[1]; degradation time 14 h
  Concentration: 3.91 µg/mL
[1]; degradation time 16 h
  Concentration: 3.9298 µg/mL
[1]; degradation time 18 h
  Concentration: 3.711 µg/mL
[1]; degradation time 20 h
  Concentration: 3.724 µg/mL
[1]; degradation time 24 h
  Concentration: 3.646 µg/mL
[1]; pH 8.2, darkness, 0 h
  Peak area: 2432
[1]; pH 8.2, darkness, 0.25 h
  Peak area: 9916
[1]; pH 8.2, darkness, 0.5 h
  Peak area: 13509
[1]; pH 8.2, darkness, 0.75 h
  Peak area: 15961
[1]; pH 8.2, darkness, 1 h
  Peak area: 16217
[1]; pH 8.2, darkness, 1.25 h
  Peak area: 18034
[1]; pH 8.2, darkness, 1.5 h
  Peak area: 18424
[1]; pH 8.2, darkness, 1.75 h
  Peak area: 19823
[1]; pH 8.2, darkness, 2 h
  Peak area: 19969
[1]; pH 8.2, darkness, 2.25 h
  Peak area: 21520
[1]; pH 8.2, darkness, 2.5 h
  Peak area: 22505
[1]; pH 8.2, darkness, 2.75 h
  Peak area: 23670
[1]; pH 8.2, darkness, 3 h
  Peak area: 24273
[1]; pH 8.2, darkness, 3.25 h
  Peak area: 25472
[1]; pH 8.2, darkness, 3.5 h
  Peak area: 25650
[1]; pH 8.2, darkness, 3.75 h
  Peak area: 25488
[1]; pH 8.2, darkness, 4 h
  Peak area: 26847
[1]; pH 8.2, darkness, 4.5 h
  Peak area: 26676
[1]; pH 8.2, darkness, 5 h
  Peak area: 25931
[1]; pH 8.2, darkness, 5.5 h
  Peak area: 27605
[1]; pH 8.2, darkness, 6 h
  Peak area: 26995
[1]; pH 8.2, darkness, 8 h
  Peak area: 26518
[1]; pH 8.2, darkness, 10 h
  Peak area: 24223
[1]; pH 8.2, darkness, 12 h
  Peak area: 24578
[1]; pH 8.2, darkness, 14 h
  Peak area: 24730
[1]; pH 8.2, darkness, 16 h
  Peak area: 24857
[1]; pH 8.2, darkness, 18 h
  Peak area: 23474
[1]; pH 8.2, darkness, 20 h
  Peak area: 23553
[1]; pH 8.2, darkness, 24 h
  Peak area: 23064
[1]; pH 8.2, darkness
  Maximum concentration as share of initial molar concentration of 2,6-DCQ: 41%

## Cc1cc(O)cc(C)c1Cl [PCMX, para-chloro-meta-xylenol, reference compound]
rat
  LD50: 3830 mg/kg
